Measured values from patent US20050250822A1, “Substituted benzanilide compound and noxious organism controlling agent” (priority 2002, published 2005).
Where two headings read alike, the source gives them in different places.

Experiments:
[1] = tested on: Common cutworms (Spodoptera litura) with second instar larvae; assay: Insecticidal test against common cutworm (leaf dip); format: in vivo; conditions: foliar, 144 h, read-out: insecticidal rate (rate of dead insects)
Method: Insecticidal Test Against Common Cutworm
(§1) A 10% emulsifiable concentrate (depending on the compounds, 25% wettable powder was applied for the test) of the compound of the present invention was diluted with water containing a spreading agent to prepare a chemical solution with a concentration of 100 ppm. To the chemical solution was dipped leaves of Chinese olive for about 10 seconds, and after air-drying, they were placed in a laboratory dish, then, 10 Common cutworms (Spodoptera litura) with second instar larvae per the dish were released therein, and the dish was covered with a lid having holes and contained at a thermostat chamber at 25° C. A number of dead insect(s) after 6 days was counted and a rate of dead insects was calculated by the following calculation formula. Incidentally, the test was carried out with two districts. Rate of dead insects (%)=(Number of dead insects/Number of released insects)×100

[2] = tested on: diamondback moths (Plutella xylostella) with second instar larvae; assay: Insecticidal test against diamondback moth (leaf dip); format: in vivo; conditions: foliar, 144 h, read-out: insecticidal rate (rate of dead insects)
Method: Insecticidal Test Against Diamondback Moth
as §1, with “diamondback moths (Plutella xylostella)” for “Common cutworms (Spodoptera litura)”, “in” for “by”, “same manner as in Test Example 1.” for “following calculation formula.”, “districts.” for “districts. Rate of dead insects (%)=(Number of dead insects/Number of released insects)×100”

[3] = chemical solution 100 ppm, leaf dip, 25° C., dead insects counted after 6 days

Row | SMILES | pest or weed control at 100 ppm [1, 3] | pest or weed control at 100 ppm [2, 3] | pest or weed control at 100 ppm [1] | pest or weed control at 100 ppm [2]
1 | Cc1cc(C2(C(F)(F)F)CC(c3ccc(C#N)cc3)=NO2)ccc1NC(=O)c1cccc(I)c1C(=O)NC(C)C (stereo not shown) [2-046, N^1-[4-[3-(4-cyanophenyl)-5-trifluoromethyl-4,5-dihydroisoxazol-5-yl]-2-methylphenyl]-3-iodo-N^2-isopropylphthalic diamide] | ≥ 80% | ≥ 80% | – | –
2 | Cc1cc(C2(C(F)(F)F)OCC(c3ccc(Cl)cc3)O2)ccc1NC(=O)c1cccc(I)c1C(=O)NC(C)C (stereo not shown) [7-03, N^1-[4-[4-(4-chlorophenyl)-2-trifluoromethyl-1,3-dioxolan-2-yl]-2-methylphenyl]-3-iodo-N^2-isopropylphthalic diamide] | ≥ 80% | ≥ 80% | – | –
3 | Cc1cc(C2(C(F)(F)F)CC(n3cncn3)=NO2)ccc1NC(=O)c1cccc(I)c1C(=O)NC(C)C (stereo not shown) [1-032, 3-Iodo-N^2-isopropyl-N^1-[4-[3-(1,2,4-triazol-1-yl)-5-trifluoromethyl-4,5-dihydroisoxazol-5-yl]-2-methylphenyl]phthalic diamide] | ≥ 80% | ≥ 80% | – | –
4 | Cc1cc(C2(C(F)(F)F)C=NC(c3ccccc3)C2)ccc1NC(=O)c1cccc(I)c1C(=O)NC(C)C (stereo not shown) [7-04, 3-Iodo-N^2-isopropyl-N^1-[2-methyl-4-(2-phenyl-4-trifluoromethyl-3,4-dihydro-2H-pyrrol-4-yl)phenyl]phthalic diamide] | ≥ 80% | ≥ 80% | – | –
5 | CC1=NOC(c2ccc(Cl)cc2)(c2ccc(NC(=O)c3cccc(I)c3C(=O)NC(C)C)c(C)c2)C1 (stereo not shown) [3-006, N^1-[4-[5-(4-chlorophenyl)-3-methyl-4,5-dihydroisoxazol-5-yl]-2-methylphenyl]-3-iodo-N^2-isopropylphthalic diamide] | ≥ 80% | ≥ 80% | – | –
6 | Cc1cc(C2(C(F)(F)F)CC(c3ccc(C(N)=O)cc3)=NO2)ccc1NC(=O)c1cccc(I)c1C(=O)NC(C)C (stereo not shown) [2-048, N^1-[4-[3-(4-carbamoylphenyl)-5-trifluoromethyl-4,5-dihydroisoxazol-5-yl]-2-methylphenyl]-3-iodo-N^2-isopropylphthalic diamide] | ≥ 80% | ≥ 80% | – | –
7 | Cc1cc(C2(C(F)(F)F)CC2(C#N)C#N)ccc1NC(=O)c1cccc(I)c1C(=O)NC(C)C (stereo not shown) [9-001, N^1-[4-(2,2-dicyano-1-trifluoromethylcyclopropyl)-2-methylphenyl]-3-iodo-N^2-isopropylphthalic diamide] | ≥ 80% | ≥ 80% | – | –
8 | CCOC(=O)C1=NOC(c2ccc(NC(=O)c3c(I)cccc3C(=O)NC(C)C)c(C)c2)(C(F)(F)F)C1 (stereo not shown) [1-020, N^1-[4-(3-ethoxycarbonyl-5-trifluoromethyl-4,5-dihydroisoxazol-5-yl)-2-methylphenyl]-6-iodo-N^2-isopropylphthalic diamide] | – | ≥ 80% | – | –
9 | Cc1cc(C2(c3ccc(Cl)cc3)CC2(F)F)ccc1NC(=O)c1cccc(I)c1C(=O)NC(C)CS(C)(=O)=O (stereo not shown) [9-065, N^1-[4-(2,2-difluoro-1-(4-chlorophenyl)cyclopropyl)-2-methylphenyl]-3-iodo-N^2-(1-methyl-2-methylsulfonylethyl)phthalic diamide] | ≥ 80% | ≥ 80% | – | –
10 | Cc1cc(C2(C3CC3)CC(c3ccc(Cl)cc3)=NO2)ccc1NC(=O)c1cccc(I)c1C(=O)NC(C)C (stereo not shown) [2-013, N^1-[4-[3-(4-chlorophenyl)-5-cyclopropyl-4,5-dihydroisoxazol-5-yl]-2-methylphenyl]-3-iodo-N 2-isopropylphthalic diamide] | ≥ 80% | ≥ 80% | – | –
11 | CSCC(C)NC(=O)c1c(I)cccc1C(=O)Nc1ccc(C2(C(F)(F)F)CC(c3ccc(Cl)cc3)=NO2)cc1C (stereo not shown) [2-095, N^1-[4-[3-(4-chlorophenyl)-5-trifluoromethyl-4,5-dihydroisoxazol-5-yl]-2-methylphenyl]-3-iodo-N^2-(1-methyl-2-methylthioethyl)phthalic diamide] | ≥ 80% | ≥ 80% | – | –
12 | Cc1cc(C2(C(F)(F)F)CC(c3ccc([S+](C)[O-])cc3)=NO2)ccc1NC(=O)c1cccc(I)c1C(=O)NC(C)C (stereo not shown) [2-037, 3-Iodo-N 2 isopropyl-N^1-[4-[3-(4-methylsulfinylphenyl)-5-trifluoromethyl-4,5-dihydroisoxazol-5-yl]-2-methylphenyl]phthalic diamide] | ≥ 80% | ≥ 80% | – | –
13 | CSCC(C)NC(=O)c1c(I)cccc1C(=O)Nc1ccc(C2(c3ccc(Cl)cc3)CC2(Cl)Cl)cc1C (stereo not shown) [9-041, N^1-[4-(2,2-dichloro-1-(4-chlorophenyl)cyclopropyl)-2-methylphenyl]-3-iodo-N^2-(1-methyl-2-methylthioethyl)phthalic diamide] | – | – | ≥ 80% | ≥ 80%
14 | CCN(CC)C(=O)c1c(I)cccc1C(=O)Nc1ccc(C2(C(F)(F)F)CC(c3ccc(S(C)(=O)=O)cc3)=NO2)cc1C (stereo not shown) [2-162, N^2, N^2-diethyl-3-iodo-N^1-[4-[3-(4-methylsulfonylphenyl)-5-trifluoromethyl-4,5-dihydroisoxazol-5-yl]-2-methylphenyl]phthalic diamide] | – | ≥ 80% | – | –
15 | CC1=NC(c2ccc(Cl)cc2)=CC(c2ccc(NC(=O)c3cccc(I)c3C(=O)NC(C)C)c(C)c2)(C(F)(F)F)N1 (stereo not shown) [8-01, N^1-[4-[6-(4-chlorophenyl)-2-methyl-4-trifluoromethyl-3,4-dihydropyrimidin-4-yl]-2-methylphenyl]-3-iodo-N^2-isopropylphthalic diamide] | ≥ 80% | ≥ 80% | – | –
16 | CC1=NN(c2ccc(Cl)cc2)C(c2ccc(NC(=O)c3cccc(I)c3C(=O)NC(C)C)c(C)c2)C1 (stereo not shown) [6-02, N^1-[4-[1-(4-chlorophenyl)-3-methyl-4,5-dihydropyrazol-5-yl]-2-methylphenyl]-3-iodo-N^2-isopropylphthalic diamide] | – | ≥ 80% | – | –
17 | Cc1cc(C2(C(F)(F)F)CC(c3ccc(F)cc3)=NO2)ccc1NC(=O)c1cccc([N+](=O)[O-])c1C(=O)NC(C)C (stereo not shown) [2-167, N^1-[4-[3-(4-fluorophenyl)-5-trifluoromethyl-4,5-dihydroisoxazol-5-yl]-2-methylphenyl]-3-nitro-N^2-isopropylphthalic diamide] | ≥ 80% | ≥ 80% | – | –
18 | Cc1cc(C2(C(F)(F)F)CN=C(c3ccc(Cl)cc3)S2)ccc1NC(=O)c1cccc(I)c1C(=O)NC(C)C (stereo not shown) [4-04, N^1-[4-[2-(4-chlorophenyl)-5-trifluoromethyl-4,5-dihydrothiazol-5-yl]-2-methylphenyl]-3-iodo-N^2-isopropylphthalic diamide] | ≥ 80% | ≥ 80% | – | –
19 | Cc1cc(C2(C(F)(F)F)ON=C(c3ccc(F)cc3)O2)ccc1NC(=O)c1cccc(I)c1C(=O)NC(C)C (stereo not shown) [4-05, N^1-[4-[3-(4-fluorophenyl)-5-trifluoromethyl-1,4,2-dioxazolin-5-yl]-2-methylphenyl]-3-iodo-N 2-isopropylphthalic diamide] | ≥ 80% | ≥ 80% | – | –
20 | Cc1cc(C2(C(F)(F)F)CC(c3ccc(F)cc3)=NO2)ccc1NC(=O)c1cccc(N)c1C(=O)NC(C)C (stereo not shown) [2-170, 3-Amino-N^1-[4-[3-(4-fluorophenyl)-5-trifluoromethyl-4,5-dihydroisoxazol-5-yl]-2-methylphenyl]-N^2-isopropylphthalic diamide] | ≥ 80% | ≥ 80% | – | –
21 | Cc1cc(C2(C(F)(F)F)CC(C#N)=C(c3ccccc3)O2)ccc1NC(=O)c1cccc(I)c1C(=O)NC(C)C (stereo not shown) [4-01, N^1-[4-(3-cyano-2-phenyl-5-trifluoromethyl-4,5-dihydrofuran-5-yl)-2-methylphenyl]-3-iodo-N 2-isopropylphthalic diamide] | – | ≥ 80% | – | –
22 | Cc1cc(C2(C(F)(F)F)CC(c3ccc(F)cc3)=NO2)ccc1NC(=O)c1cccc(I)c1C(=O)NC(C)C (stereo not shown) [2-016, N^1-[4-[3-(4-fluorophenyl)-5-trifluoromethyl-4,5-dihydroisoxazol-5-yl]-2-methylphenyl]-3-iodo-N^2-isopropylphthalic diamide] | ≥ 80% | ≥ 80% | – | –
23 | Cc1cc(C2(C(F)(F)F)OCC(c3ccc(Cl)cc3)S2)ccc1NC(=O)c1cccc(I)c1C(=O)NC(C)C (stereo not shown) [7-09, N^1-[4-[4-(4-chlorophenyl)-2-trifluoromethyl-1,3-oxathiolan-2-yl]-2-methylphenyl]-3-iodo-N^2-isopropylphthalic diamide] | – | ≥ 80% | – | –
24 | Cc1cc(C2(C(F)(F)F)CC(C(F)(F)F)=NO2)ccc1NC(=O)c1cccc(I)c1C(=O)NC(C)C (stereo not shown) [1-013, 3-Iodo-N^2-isopropyl-N^1-[2-methyl-4-(3,5-bistrifluoromethyl-4,5-dihydroisoxazol-5-yl)phenyl]phthalic diamide] | – | ≥ 80% | – | –
25 | CC1=NOC(c2ccc(NC(=O)c3c(I)cccc3C(=O)NC(C)C)c(C)c2)(C(F)(F)F)C1 (stereo not shown) [1-007, 6-iodo-N^2-isopropyl-N^1-[2-methyl-4-(3-methyl-5-trifluoromethyl-4,5-dihydroisoxazol-5-yl)phenyl]phthalic diamide] | – | ≥ 80% | – | –
